Reference: US7214690B2, “Tricyclic quinolinone and tricyclic quinoline androgen receptor modulator compounds and methods” (Ligand Pharmaceuticals Incorporated, priority 2001, dated 2007)

Experiments:
Format in all cases: cell-based
[1] = molecular target: T1, MR (Homo sapiens, UniProt P08235); test: co-transfection assay, MR
T1 construct: expressed in transfected cells; host or cells: background cell substantially devoid of endogenous IRs (CV-1 described for the co-transfection assay)
T1 sequence (P08235 1-984): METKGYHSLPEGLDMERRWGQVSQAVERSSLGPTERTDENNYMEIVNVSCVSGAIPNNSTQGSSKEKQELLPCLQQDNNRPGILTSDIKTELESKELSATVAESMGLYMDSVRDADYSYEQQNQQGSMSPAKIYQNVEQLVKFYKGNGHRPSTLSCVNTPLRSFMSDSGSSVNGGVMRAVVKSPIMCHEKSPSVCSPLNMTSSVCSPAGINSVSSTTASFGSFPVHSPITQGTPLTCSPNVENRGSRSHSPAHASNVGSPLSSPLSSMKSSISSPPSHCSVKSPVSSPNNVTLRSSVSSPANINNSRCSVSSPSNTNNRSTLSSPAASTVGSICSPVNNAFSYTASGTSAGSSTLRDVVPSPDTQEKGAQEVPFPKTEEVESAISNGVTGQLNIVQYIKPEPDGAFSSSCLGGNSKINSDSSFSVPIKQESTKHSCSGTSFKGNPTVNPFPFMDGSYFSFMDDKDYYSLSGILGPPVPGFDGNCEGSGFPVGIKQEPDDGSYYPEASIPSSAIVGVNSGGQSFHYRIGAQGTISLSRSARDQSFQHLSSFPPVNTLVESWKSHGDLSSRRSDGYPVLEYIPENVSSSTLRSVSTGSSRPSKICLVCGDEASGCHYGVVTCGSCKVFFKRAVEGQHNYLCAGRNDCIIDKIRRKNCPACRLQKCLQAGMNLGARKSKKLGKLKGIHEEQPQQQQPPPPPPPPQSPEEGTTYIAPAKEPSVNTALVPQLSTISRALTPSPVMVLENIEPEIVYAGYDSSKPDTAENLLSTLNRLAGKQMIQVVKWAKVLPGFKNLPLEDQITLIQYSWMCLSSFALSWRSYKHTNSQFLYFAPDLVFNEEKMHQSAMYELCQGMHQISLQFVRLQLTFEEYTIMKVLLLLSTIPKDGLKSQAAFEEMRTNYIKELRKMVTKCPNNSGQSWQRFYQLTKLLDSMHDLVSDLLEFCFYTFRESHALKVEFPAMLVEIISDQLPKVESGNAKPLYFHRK
Procedure: (§1) CV-1 cells (African green monkey kidney fibroblasts) were cultured in the presence of Dulbecco's Modified Eagle Medium (DMEM) supplemented with 10% charcoal resin-stripped fetal bovine serum (CH-FBS) then transferred to 96-well microtiter plates one day prior to transfection.
(§2) Three to four replicates were used for each sample.
(§3) After 40 hours, the cells were washed with PBS, lysed with a Triton X-100-based buffer and assayed for LUC and β-Gal activities using a luminometer or spectrophotometer, respectively. For each replicate, the normalized response (NR) was calculated as: LUC response/β-Gal rate • where β-Gal rate=β-Gal/β-Gal incubation time.

[2] = molecular target: T2, PR (Homo sapiens, UniProt P06401); test: co-transfection assay, PR
T2 construct: expressed in transfected cells; host or cells: background cell substantially devoid of endogenous IRs (CV-1 described for the co-transfection assay)
T2 sequence (P06401 1-933): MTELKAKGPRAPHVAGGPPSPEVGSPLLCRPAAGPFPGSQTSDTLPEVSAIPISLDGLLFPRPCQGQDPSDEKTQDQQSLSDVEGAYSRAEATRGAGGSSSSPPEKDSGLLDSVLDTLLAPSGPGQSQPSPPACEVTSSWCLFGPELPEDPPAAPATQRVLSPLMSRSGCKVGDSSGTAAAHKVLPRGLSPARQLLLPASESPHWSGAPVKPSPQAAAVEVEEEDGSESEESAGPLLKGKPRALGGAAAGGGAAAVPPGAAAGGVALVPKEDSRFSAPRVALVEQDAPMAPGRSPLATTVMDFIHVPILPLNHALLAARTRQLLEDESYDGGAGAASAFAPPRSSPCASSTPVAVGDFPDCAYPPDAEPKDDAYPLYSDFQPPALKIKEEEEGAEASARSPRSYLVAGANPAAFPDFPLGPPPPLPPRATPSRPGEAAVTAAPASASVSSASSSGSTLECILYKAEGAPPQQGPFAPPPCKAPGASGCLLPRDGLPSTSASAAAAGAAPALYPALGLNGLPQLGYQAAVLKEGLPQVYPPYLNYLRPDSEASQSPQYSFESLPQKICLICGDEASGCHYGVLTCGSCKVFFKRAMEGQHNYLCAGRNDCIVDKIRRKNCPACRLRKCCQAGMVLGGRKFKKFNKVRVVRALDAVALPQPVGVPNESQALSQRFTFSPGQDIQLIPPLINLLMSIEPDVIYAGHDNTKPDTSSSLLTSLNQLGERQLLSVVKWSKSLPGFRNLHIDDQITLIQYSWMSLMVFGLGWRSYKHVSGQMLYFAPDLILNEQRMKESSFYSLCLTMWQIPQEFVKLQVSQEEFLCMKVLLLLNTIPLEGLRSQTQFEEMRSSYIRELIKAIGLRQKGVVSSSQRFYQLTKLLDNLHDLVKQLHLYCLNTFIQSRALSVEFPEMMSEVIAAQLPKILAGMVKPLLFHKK
Procedure: as §1, §2, §3

[3] = molecular target: T3, GR (Homo sapiens, UniProt P04150); test: co-transfection assay, GR
T3 construct: expressed in transfected cells; host or cells: background cell substantially devoid of endogenous IRs (CV-1 described for the co-transfection assay)
T3 sequence (P04150 1-777): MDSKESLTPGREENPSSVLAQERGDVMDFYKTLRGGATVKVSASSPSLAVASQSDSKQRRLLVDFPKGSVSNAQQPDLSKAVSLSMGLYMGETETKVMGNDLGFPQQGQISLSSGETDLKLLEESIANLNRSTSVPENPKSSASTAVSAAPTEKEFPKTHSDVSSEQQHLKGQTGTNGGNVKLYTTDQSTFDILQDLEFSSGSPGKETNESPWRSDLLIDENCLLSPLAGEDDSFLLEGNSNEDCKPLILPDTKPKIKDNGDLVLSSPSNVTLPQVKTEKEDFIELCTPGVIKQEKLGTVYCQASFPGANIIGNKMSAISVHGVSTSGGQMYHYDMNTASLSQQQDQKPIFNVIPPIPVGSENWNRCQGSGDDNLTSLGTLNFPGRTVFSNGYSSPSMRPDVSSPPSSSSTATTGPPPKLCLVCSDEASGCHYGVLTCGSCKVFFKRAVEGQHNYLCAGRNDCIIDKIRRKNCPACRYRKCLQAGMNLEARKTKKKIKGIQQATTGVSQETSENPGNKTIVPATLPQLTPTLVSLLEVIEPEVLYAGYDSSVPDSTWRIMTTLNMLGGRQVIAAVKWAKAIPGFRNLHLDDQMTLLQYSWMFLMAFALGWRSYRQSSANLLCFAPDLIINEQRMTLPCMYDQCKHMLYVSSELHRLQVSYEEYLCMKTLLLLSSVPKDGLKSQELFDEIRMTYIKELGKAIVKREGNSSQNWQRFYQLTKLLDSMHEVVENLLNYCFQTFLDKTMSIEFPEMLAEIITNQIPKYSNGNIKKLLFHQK
Procedure: as §1, §2, §3

[4] = molecular target: T4, ER (Homo sapiens, UniProt P03372); test: co-transfection assay, ER
T4 construct: expressed in transfected cells; host or cells: background cell substantially devoid of endogenous IRs (CV-1 described for the co-transfection assay)
T4 sequence (P03372 1-595): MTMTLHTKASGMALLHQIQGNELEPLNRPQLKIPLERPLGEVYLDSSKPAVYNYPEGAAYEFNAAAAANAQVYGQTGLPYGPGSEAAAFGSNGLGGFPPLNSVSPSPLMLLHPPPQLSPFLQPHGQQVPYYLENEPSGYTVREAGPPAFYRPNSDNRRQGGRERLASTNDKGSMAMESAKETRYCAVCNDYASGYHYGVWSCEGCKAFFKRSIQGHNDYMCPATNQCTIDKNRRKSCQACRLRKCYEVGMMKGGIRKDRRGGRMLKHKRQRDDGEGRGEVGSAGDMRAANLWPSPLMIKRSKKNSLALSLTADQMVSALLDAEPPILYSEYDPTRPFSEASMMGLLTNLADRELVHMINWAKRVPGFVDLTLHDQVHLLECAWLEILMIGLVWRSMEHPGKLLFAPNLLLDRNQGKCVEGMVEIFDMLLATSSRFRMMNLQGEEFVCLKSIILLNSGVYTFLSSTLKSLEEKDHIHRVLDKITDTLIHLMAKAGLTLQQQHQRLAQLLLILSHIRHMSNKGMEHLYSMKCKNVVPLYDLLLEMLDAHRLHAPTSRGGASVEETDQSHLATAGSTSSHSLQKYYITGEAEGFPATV
Procedure: as §1, §2, §3

CCN1c2ccc3[nH]c(=O)cc(C(F)(F)F)c3c2OC[C@H]1C [Compound 103, (3R)-4-Ethyl-2,3,4,7-tetrahydro-3-methyl-10-(trifluoromethyl)-8H-[1,4]oxazino[2,3-f]quinolin-8-one]
> 10 µM: IC50 [1] | EC50 [2] | IC50 [3] | EC50 [4] | IC50 [4]

C[C@@H]1COc2c(ccc3[nH]c(=O)cc(C(F)(F)F)c23)N1 [Compound 101, (3R)-2,3,4,7-Tetrahydro-3-methyl-10-(trifluoromethyl)-8H-[1,4]oxazino[2,3-f]quinolin-8-one]
> 10 µM: IC50 [1] | EC50 [2] | IC50 [3] | EC50 [4] | IC50 [4]
